The values below come from patent US20110160054A1, “Pesticidal Mixtures Comprising Cyanosulfoximine Compounds and Spinetoram” (BASF SE, priority 2008, published 2011).

Like-named read-outs stand apart in the source and are kept apart here.

Common to all, as to assay type: cell-based
Details in all cases: single compound, 7 days after inoculation

One assay has as its system Botrytis cinerea. The assay can be described thus: Activity against the grey mold Botrytis cinerea in the microtiterplate test (Botrci).
A further assay relates to Septoria tritici. In words: Activity against leaf blotch on wheat caused by Septoria tritici, microtiter test (Septtr).
In the next assay the test system is Pyricularia oryzae.
The next assay has as its system Phytophthora infestans.

For `Fc1ccc([C@]2(Cn3cncn3)O[C@H]2c2ccccc2Cl)cc1` (racemic) [Epoxiconazol, epoxiconazole], the Observed efficacy with Botrytis cinerea (0.25 ppm) is 25%.

Turning to `CO/C=C(/C(=O)OC)c1ccccc1Oc1cc(Oc2ccccc2C#N)ncn1` [Azoxystrobin, azoxystrobin], in the assay on Septoria tritici (0.063 ppm), the Observed efficacy is listed as 56%.

Consider `COC(=O)Nc1nc2ccccc2[nH]1` [Carbendazim, carbendazim], for which, in the assay with Pyricularia oryzae (0.25 ppm), the Observed efficacy came to 15%.

With `Cc1ccc(-c2c(Cl)nc(C#N)n2S(=O)(=O)N(C)C)cc1` [Cyazofamid, cyazofamid], in the assay with Phytophthora infestans (0.063 ppm), the Observed efficacy was determined as 67%.

In the assay on Septoria tritici (16 ppm), `CC1(C(=O)Nc2ccc(O)c(Cl)c2Cl)CCCCC1` [Fenhexamid, fenhexamid] yielded an Observed efficacy of 33%.

In the assay with Botrytis cinerea (0.063 ppm), `OC(Cc1ccccc1Cl)(Cn1nc[nH]c1=S)C1(Cl)CC1` (centres unmarked) [Prothioconazol, prothioconazole] displayed an Observed efficacy of 19%.

As to `COC(=O)N(OC)c1ccccc1COc1ccn(-c2ccc(Cl)cc2)n1` [Pyraclostrobin, pyraclostrobin], in the assay with Botrytis cinerea (0.25 ppm), the Observed efficacy is listed as 4%.

Regarding `CC(C)CC(C)c1sccc1NC(=O)c1cn(C)nc1C(F)(F)F` (centres unmarked) [penthiopyrad], the Observed efficacy with Botrytis cinerea (0.063 ppm) was 32%; with Botrytis cinerea (0.25 ppm), 45%; in the assay on Pyricularia oryzae (0.25 ppm), 6%; in the assay on Pyricularia oryzae (1 ppm), 55%.

The compound `Cn1cc(C(=O)Nc2ccccc2C2CC2C2CC2)c(C(F)F)n1` (centres unmarked) [sedaxane] had an Observed efficacy with Botrytis cinerea (0.25 ppm) of 41%.

Spinetoram: the Observed efficacy in the assay with Botrytis cinerea (0.25 ppm) is 1%; in the assay on Botrytis cinerea (4 ppm) it was 1%; in the assay with Botrytis cinerea (16 ppm), 0%; with Botrytis cinerea (63 ppm), 21%; in the assay on Pyricularia oryzae (4 ppm) it was 2%; with Pyricularia oryzae (16 ppm) it was 2%. The Observed efficacy with Pyricularia oryzae (63 ppm) is 34%; with Phytophthora infestans (4 ppm), 2%; in the assay with Phytophthora infestans (16 ppm) it was 24%; in the assay on Septoria tritici (16 ppm), 0%; with Septoria tritici (63 ppm) it was 4%.

Take mancozeb: the Observed efficacy in the assay on Botrytis cinerea (16 ppm) is on record as 46%.

With propineb, the Observed efficacy in the assay on Phytophthora infestans (1 ppm) turned out to be 23%; in the assay with Septoria tritici (1 ppm) it was 25%.
